Data published in ChEMBL document CHEMBL2069221, “Hybrid molecules of carvacrol and benzoyl urea/thiourea with potential applications in agriculture and medicine” (Bioorg Med Chem Lett, 2012).
Values after ≈ are worked out from the molar mass of the structure shown. Active and inactive are the calls of the source. The calls are words filed in the database; no cut-off is given here.

Columns and labels:
[1] = test system: Dysdercus koenigii; test: Insecticidal activity against 5th instar nymph of Dysdercus koenigii assessed as mortality per nymph; format: functional
[2] = test system: Pyricularia grisea; test: Antifungal activity against Magnaporthe grisea after 48 hrs by microbroth dilution method; format: functional
[3] = test system: Fusarium oxysporum; test: Antifungal activity against Fusarium oxysporum after 48 hrs by microbroth dilution method; format: functional
[4] = test system: Drechslera; test: Antifungal activity against Dreschlera oryzae after 48 hrs by microbroth dilution method; format: functional
[5] = test system: Debaryomyces hansenii; test: Antifungal activity against Debaryomyces hansenii after 48 hrs by microbroth dilution method; format: functional
[6] = Antifungal activity against Pichia membranifaciens after 48 hrs by microbroth dilution method; format: functional
[7] = test system: Candida albicans; test: Antifungal activity against Candida albicans NCIM 3557 after 48 hrs by microbroth dilution method; format: functional
[8] = test system: Candida albicans; test: Antifungal activity against Candida albicans after 48 hrs by microbroth dilution method; format: functional
[9] = test system: Candida albicans; test: Antifungal activity against Candida albicans NCIM 3471 after 48 hrs by microbroth dilution method; format: functional
[10] = test system: Nakaseomyces glabratus; test: Antifungal activity against Candida glabrata NCIM 3237 after 48 hrs by microbroth dilution method; format: functional
[11] = test system: Cryptococcus neoformans; test: Antifungal activity against Cryptococcus neoformans after 48 hrs by microbroth dilution method; format: functional
[12] = test system: Cryptococcus neoformans; test: Antifungal activity against Cryptococcus neoformans NCIM 3541 after 48 hrs by microbroth dilution method; format: functional
[13] = test system: Cryptococcus neoformans; test: Antifungal activity against Cryptococcus neoformans NCIM 3542 after 48 hrs by microbroth dilution method; format: functional
[14] = test system: Cryptococcus neoformans; test: Antifungal activity against Cryptococcus neoformans NCIM 3378 after 48 hrs by microbroth dilution method; format: functional
[15] = Toxicity in RBC assessed as induction of hemolysis; format: cell-based, Erythrocyte; conditions: red blood cells (RBC)
[16] = Toxicity in RBC assessed as induction of hemolysis at MIC; format: cell-based, Erythrocyte; conditions: red blood cells (RBC); read-out: Activity
[17] = test system: Dysdercus koenigii; test: Insecticidal activity against 5th instar nymph of Dysdercus koenigii assessed as smaller body size at 20 and 50 ug/nymph; format: functional
[18] = test system: Dysdercus koenigii; test: Insecticidal activity against 5th instar nymph of Dysdercus koenigii assessed as crumpled wings at 20 and 50 ug/nymph; format: functional
[19] = test system: Dysdercus koenigii; test: Insecticidal activity against 5th instar nymph of Dysdercus koenigii assessed as deformed legs at 20 and 50 ug/nymph; format: functional

SMILES | LD50 [1] | MIC [2] | MIC [3] | MIC [4] | MIC [5] | MIC [6] | GI [7] | GI [8] | GI [9] | GI [10] | GI [11] | GI [12] | GI [13] | GI [14] | HC50 [15] | hemolysis [16] | Activity [17] | Activity [18] | Activity [19]
Cc1cc(NC(=S)NC(=O)c2ccccc2)c(C(C)C)cc1O | 23.6 µg | > 512 µg/mL | > 512 µg/mL | > 512 µg/mL | > 512 µg/mL | 512 µg/mL (≈ 1560 µM) | 128 µg/mL | 32 µg/mL | >512 µg/mL | 32 µg/mL | 64 µg/mL | 16 µg/mL | 32 µg/mL | 128 µg/mL | > 1000 µg/mL | < 2% | – | – | –
Cc1cc(NC(=S)NC(=O)c2ccccc2Cl)c(C(C)C)cc1O | 13 µg | > 512 µg/mL | > 512 µg/mL | > 512 µg/mL | > 512 µg/mL | 512 µg/mL (≈ 1410 µM) | 64 µg/mL | 64 µg/mL | >512 µg/mL | 64 µg/mL | 128 µg/mL | 32 µg/mL | 64 µg/mL | >512 µg/mL | > 1000 µg/mL | < 2% | – | – | –
C[C@@H]1[C@H](O)[C@@H](C)/C=C/C=C/C=C/C=C/C=C/C=C/C=C/[C@H](O[C@@H]2O[C@H](C)[C@@H](O)[C@H](N)[C@@H]2O)C[C@@H]2O[C@](O)(C[C@@H](O)C[C@@H](O)[C@H](O)CC[C@@H](O)C[C@@H](O)CC(=O)O[C@H]1C)C[C@H](O)[C@H]2C(=O)O [AMPHOTERICIN B] | – | – | – | – | – | – | – | – | – | – | – | – | – | – | 8 µg/mL | – | – | – | –
O=C(NC(=O)c1c(F)cccc1F)Nc1cc(Cl)c(OC(F)(F)C(F)C(F)(F)F)cc1Cl (stereo not drawn) [LUFENURON] | 9 µg | > 512 µg/mL | > 512 µg/mL | > 512 µg/mL | > 512 µg/mL | > 512 µg/mL | >512 µg/mL | >512 µg/mL | >512 µg/mL | >512 µg/mL | >512 µg/mL | >512 µg/mL | >512 µg/mL | >512 µg/mL | > 1000 µg/mL | – | – | – | –
Cc1cc(NC(=O)NC(=O)c2c(F)cccc2F)c(C(C)C)cc1O | 9.5 µg | > 512 µg/mL | > 512 µg/mL | > 512 µg/mL | > 512 µg/mL | > 512 µg/mL | >512 µg/mL | 16 µg/mL | 32 µg/mL | 16 µg/mL | >512 µg/mL | <4 µg/mL | 16 µg/mL | 16 µg/mL | > 1000 µg/mL | < 2% | Active | Active | Active
Cc1cc(NC(=O)NC(=O)c2ccccc2)c(C(C)C)cc1O | 21.5 µg | > 512 µg/mL | > 512 µg/mL | > 512 µg/mL | > 512 µg/mL | > 512 µg/mL | 512 µg/mL | >512 µg/mL | >512 µg/mL | >512 µg/mL | >512 µg/mL | >512 µg/mL | 256 µg/mL | >512 µg/mL | > 1000 µg/mL | < 2% | – | – | –
Cc1ccc(C(C)C)cc1O [CARVACROL] | 33.3 µg | 128 µg/mL (≈ 852 µM) | 64 µg/mL (≈ 426 µM) | 64 µg/mL (≈ 426 µM) | 128 µg/mL (≈ 852 µM) | 128 µg/mL (≈ 852 µM) | 128 µg/mL | 128 µg/mL | 256 µg/mL | 128 µg/mL | 128 µg/mL | 128 µg/mL | 128 µg/mL | 128 µg/mL | 250 µg/mL | – | – | – | –
